Laboratory results reported in US8426420B2, “Heterocyclic pyrazole-carboxamidesas P2Y12 antagonists” (Sanofi, priority 2007, dated 2013).

Tests used:
human P2Y12 receptor = human P2Y12 receptor (Homo sapiens, UniProt Q9H244); assay: Human P2Y12 recombinant cell membrane binding assay with 33P 2MeS-ADP; settings: competition against 33P 2MeS-ADP, membranes of CHO cells with recombinant human P2Y12 receptor
Protocol: The ability of the compounds of the formula Ito inhibit the P2Y12 receptor can be assessed by determining the concentration of the compound of the formula I that binds to the human P2Y12 Recombinant Cell Membrane Binding Assay with 33P 2MeS-ADP.
Human P2Y12 Recombinant Cell Membrane Binding Assay
The ability of a test compound to bind to the P2Y12 receptor was evaluated in a recombinant cell membrane binding assay. In this competitive binding assay, the test compound competed against a radiolabeled agonist for binding to the P2Y12 receptor, expressed on the cell membrane. Inhibition of binding of the labeled material was measured and correlated to the amount and potency of the test compound. This binding assay is a modification of the procedure described by Takasaki, J. et. al, Mol. Pharmacol., 2001, Vol. 60, pg. 432. A membrane preparation was prepared from Chinese Hamster Ovary (CHO) cells with recombinant expression of the human P2Y12 receptor according to standard procedures as a source of P2Y12.
To a 96-well microtiterplate the following were added: a) 24 μl of assay buffer (10 mM HEPES, 138 mM NaCl, […] KCl, 12 mM NaHCO3, 1 mM EDTA-Na, 0.1% BSA, pH 7.4) b) 1 μL compound in DMSO c) 50 μL P2Y12 CHO membrane (20 μg/ml) and after 15 min at RT d) 25 μL of 1.61 nM 33P 2MeS-ADP (Perkin Elmer NEN custom synthesis, specific activity ˜2100 Ci/mmol) made in assay buffer.
After 20 min incubation at RT samples were transferred to 96-well microtiter filterplates (Millipore HTS GF/B), pre-wetted for 20 min with 300 μL of stop buffer (10 mM HEPES, 138 mM NaCl pH 7.4) and then filtered through completely with a Millipore plate vacuum. Next, wells were washed four times with 400 μl/well of stop buffer on a plate vacuum. The plate was disassembled and allowed to air dry overnight with the filter side up over night. The filter plates were snapped into adapter plates and 0.1 mL of Microscint 20 Scintillation Fluid (Perkin Elmer #6013621) was added to each well. The top of the filterplate was sealed with plastic plate covers. The sealed filterplate were incubated 2 hours at RT. A Microbeta Scintillation Counter was used to measure counts.
Compounds were diluted as 10 mM DMSO stocks and tested in a four-point, five-fold dilution series run in triplicate beginning at 10 μM, final concentration. Data were analyzed using a four-parameter curve fit with a fixed minimum and maximum experimentally defined as the average positive and negative controls on each plate.

[1] = system: human platelet rich plasma; assay: Inhibition of human platelet aggregation, 96-well assay; type: cell-based; settings: Homo sapiens, Platelet, 20 min
Procedure, shortened: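 ADP-induced aggregation read as 650 nm absorbance every minute for 20 min at 37 °C, with shaking between reads. PRP (~3×E8 platelets/ml, diluted with PPP, ACD-A blood from healthy volunteers) was exposed to compound for 5 min before adding a 40 μM ADP stock (15 μl into 150 μl).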

human P2Y12 receptor, sequence (Q9H244 whole entry): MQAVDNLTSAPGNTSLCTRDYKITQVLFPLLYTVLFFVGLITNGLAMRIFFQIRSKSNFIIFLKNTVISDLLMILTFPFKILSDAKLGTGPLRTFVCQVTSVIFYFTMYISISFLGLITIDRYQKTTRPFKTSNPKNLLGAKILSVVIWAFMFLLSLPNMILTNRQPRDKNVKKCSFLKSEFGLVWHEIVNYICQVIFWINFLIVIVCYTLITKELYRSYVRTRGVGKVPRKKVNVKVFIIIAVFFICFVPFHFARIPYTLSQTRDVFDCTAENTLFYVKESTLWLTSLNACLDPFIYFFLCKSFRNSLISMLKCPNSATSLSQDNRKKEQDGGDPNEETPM

IC50 (human P2Y12 receptor) [nM] | IC50 [1] [nM] | Structure (SMILES)
19 | 30 | CCOC(=O)N1CCN(C(=O)[C@H](CCC(=O)O)NC(=O)c2cc(OCC(=O)N3CCC[C@H]3C(=O)NC3CCC3)n(-c3ccccc3)n2)CC1 [Example 5]
146 | 70 | CCOC(=O)N1CCN(C(=O)[C@H](CCC(=O)O)NC(=O)c2cc(OCC(=O)N3CCC[C@H]3C(=O)N3CCCCC3)n(-c3ccccc3)n2)CC1 [Example 18, 4-{(S)-4-Carboxy-2-[(5-{2-oxo-2-[(S)-2-(piperidine-1-carbonyl)-pyrrolidin-1-yl]-ethoxy}-1-phenyl-1H-pyrazole-3-carbonyl)-amino]-butyryl}-piperazine-1-carboxylic acid ethyl ester]
32 | 62 | CCOC(=O)N1CCN(C(=O)[C@H](CCC(=O)O)NC(=O)c2cc(OCC(=O)N3CCC[C@H]3C(=O)NC3CC3(F)F)n(-c3ccccc3)n2)CC1 (stereo partly drawn) [Example 21, 4-{(S)-4-Carboxy-2-[(5-{2-[(S)-2-(2,2-difluoro-cyclopropylcarbamoyl)-pyrrolidin-1-yl]-2-oxo-ethoxy}-1-phenyl-1H-pyrazole-3-carbonyl)-amino]-butyryl}-piperazine-1-carboxylic acid ethyl ester]
109 | 80 | CCOC(=O)N1CCN(C(=O)[C@H](CCC(=O)O)NC(=O)c2cc(OCC(=O)N3CC[C@H]3C(=O)NC3CCC3)n(-c3ccccc3)n2)CC1 [Example 41, 4-[(S)-4-Carboxy-2-({5-[2-((S)-2-cyclobutylcarbamoyl-azetidin-1-yl)-2-oxo-ethoxy]-1-phenyl-1H-pyrazole-3-carbonyl}-amino)-butyryl]-piperazine-1-carboxylic acid ethyl ester]
96 | 60 | CCOC(=O)N1CCN(C(=O)[C@H](CC(=O)O)NC(=O)c2cc(OCC(=O)N3CCC[C@H]3C(=O)NCC(F)(F)F)n(-c3ccccc3)n2)CC1 [Example 58, 4-{(S)-3-Carboxy-2-[(5-{2-[(S)-2-(2,2,2-trifluoro-ethylcarbamoyl)-pyrrolidin-1-yl]-2-oxo-ethoxy}-1-phenyl-1H-pyrazole-3-carbonyl)-amino]-propionyl}-piperazine-1-carboxylic acid ethyl ester]
192 | 710 | CCOC(=O)N1CCN(C(=O)[C@H](CCC(=O)O)NC(=O)c2cc(OCC(=O)N3CCC[C@H]3C(=O)NC3CC3)n(-c3cccc(F)c3)n2)CC1 [Example 71, 4-((S)-4-Carboxy-2-{[5-[2-((S)-2-cyclopropylcarbamoyl-pyrrolidin-1-yl)-2-oxo-ethoxy]-1-(3-fluoro-phenyl)-1H-pyrazole-3-carbonyl]-amino}-butyryl)-piperazine-1-carboxylic acid ethyl ester]
45 |  | CCCCOC(=O)N1CCN(C(=O)C(NC(=O)c2cc(OCC(=O)N3CCC[C@H]3C(=O)NC3CCC3)n(-c3ccccc3)n2)C(C)F)CC1 (stereo partly drawn) [Example 176, 4-[2-({5-[2-((S)-2-Cyclobutylcarbamoyl-pyrrolidin-1-yl)-2-oxo-ethoxy]-1-phenyl-1H-pyrazole-3-carbonyl}-amino)-3-fluoro-butyryl]-piperazine-1-carboxylic acid butyl ester]
16 |  | CCCCOC(=O)N1CCN(C(=O)[C@H](C)NC(=O)c2cc(OCC(=O)N3CCC[C@H]3C(=O)NC3CCC3)n(-c3ccccc3)n2)CC1 [Example 186, 4-[(S)-2-({5-[2-((S)-2-Cyclobutylcarbamoyl-pyrrolidin-1-yl)-2-oxo-ethoxy]-1-phenyl-1H-pyrazole-3-carbonyl}-amino)-propionyl]-piperazine-1-carboxylic acid butyl ester]
88 |  | CCOC(=O)N1CCN(C(=O)[C@H](CCCCOCc2ccccc2)NC(=O)c2cc(OCC(=O)N3CCC[C@H]3C(=O)NC3CCC3)n(-c3ccccc3)n2)CC1 [Example 195, 4-[(S)-6-Benzyloxy-2-({5-[2-((S)-2-cyclobutylcarbamoyl-pyrrolidin-1-yl)-2-oxo-ethoxy]-1-phenyl-1H-pyrazole-3-carbonyl}-amino)-hexanoyl]-piperazine-1-carboxylic acid ethyl ester]
23 |  | CCCCOC(=O)N1CCN(C(=O)[C@H](CCCCOCc2ccccc2)NC(=O)c2cc(OCC(=O)N3CCC[C@H]3C(=O)NC3CCC3)n(-c3ccccc3)n2)CC1 [Example 196, 4-[(S)-6-Benzyloxy-2-({5-[2-((S)-2-cyclobutylcarbamoyl-pyrrolidin-1-yl)-2-oxo-ethoxy]-1-phenyl-1H-pyrazole-3-carbonyl}-amino)-hexanoyl]-piperazine-1-carboxylic acid butyl ester]
99 |  | O=C(N[C@@H](CCCCOCc1ccccc1)C(=O)N1CCN(C(=O)OC2CCC2)CC1)c1cc(OCC(=O)N2CCC[C@H]2C(=O)NC2CCC2)n(-c2ccccc2)n1 [Example 197, 4-[(S)-6-Benzyloxy-2-({5-[2-((S)-2-cyclobutylcarbamoyl-pyrrolidin-1-yl)-2-oxo-ethoxy]-1-phenyl-1H-pyrazole-3-carbonyl}-amino)-hexanoyl]-piperazine-1-carboxylic acid cyclobutyl ester]
17 |  | CCCCOC(=O)N1CCN(C(=O)[C@H](CCCOC(=O)C(C)C)NC(=O)c2cc(OCC(=O)N3CCC[C@H]3C(=O)NC3CCC3)n(-c3ccccc3)n2)CC1 [Example 212, 4-[(S)-2-({5-[2-((S)-2-Cyclobutylcarbamoyl-pyrrolidin-1-yl)-2-oxo-ethoxy]-1-phenyl-1H-pyrazole-3-carbonyl}-amino)-5-isobutyryloxy-pentanoyl]-piperazine-1-carboxylic acid butyl ester]
136 |  | CCCCOC(=O)N1CCN(C(=O)[C@H](CC2CCCCC2)NC(=O)c2cc(OCC(=O)N3CCC[C@H]3C(=O)NC3CCC3)n(-c3ccccc3)n2)CC1 [Example 225, 4-[(S)-2-({5-[2-((S)-2-Cyclobutylcarbamoyl-pyrrolidin-1-yl)-2-oxo-ethoxy]-1-phenyl-1H-pyrazole-3-carbonyl}-amino)-3-cyclohexyl-propionyl]-piperazine-1-carboxylic acid butyl ester]
59 |  | CCCCOC(=O)N1CCN(C(=O)[C@H](CC(C)C)NC(=O)c2cc(OCC(=O)N3CCC[C@H]3C(=O)NC3CCC3)n(-c3ccccc3)n2)CC1 [Example 226, 4-[(S)-2-({5-[2-((S)-2-Cyclobutylcarbamoyl-pyrrolidin-1-yl)-2-oxo-ethoxy]-1-phenyl-1H-pyrazole-3-carbonyl}-amino)-4-methyl-pentanoyl]-piperazine-1-carboxylic acid butyl ester]
22 |  | CCCCOC(=O)N1CCN(C(=O)[C@@H](NC(=O)c2cc(OCC(=O)N3CCC[C@H]3C(=O)NC3CCC3)n(-c3ccccc3)n2)[C@H](C)CC)CC1 [Example 229, 4-[(2S,3R)-2-({5-[2-((S)-2-Cyclobutylcarbamoyl-pyrrolidin-1-yl)-2-oxo-ethoxy]-1-phenyl-1H-pyrazole-3-carbonyl}-amino)-3-methyl-pentanoyl]-piperazine-1-carboxylic acid butyl ester]
85 |  | CCCCOC(=O)N1CCN(C(=O)[C@H](CC2CC2)NC(=O)c2cc(OCC(=O)N3CCC[C@H]3C(=O)NC3CCC3)n(-c3ccccc3)n2)CC1 [Example 234, 4-[(S)-2-({5-[2-((S)-2-Cyclobutylcarbamoyl-pyrrolidin-1-yl)-2-oxo-ethoxy]-1-phenyl-1H-pyrazole-3-carbonyl}-amino)-3-cyclopropyl-propionyl]-piperazine-1-carboxylic acid butyl ester]
36 |  | CCCCOC(=O)N1CCN(C(=O)[C@H](CC(F)(F)F)NC(=O)c2cc(OCC(=O)N3CCC[C@H]3C(=O)NC3CCC3)n(-c3ccccc3)n2)CC1 [Example 274, 4-[(S)-2-({5-[2-((S)-2-Cyclobutylcarbamoyl-pyrrolidin-1-yl)-2-oxo-ethoxy]-1-phenyl-1H-pyrazole-3-carbonyl}-amino)-4,4,4-trifluoro-butyryl]-piperazine-1-carboxylic acid butyl ester]

Structure (SMILES) | IC50 (human P2Y12 receptor) [nM] | IC50 [1] [nM]
CCOC(=O)N1CCN(C(=O)[C@H](CCCCOC(C)=O)NC(=O)c2cc(OCC(=O)N3CCC[C@H]3C(=O)NC3CCC3)n(-c3ccccc3)n2)CC1 [Example 237, 4-[(S)-6-Acetoxy-2-({5-[2-((S)-2-cyclobutylcarbamoyl-pyrrolidin-1-yl)-2-oxo-ethoxy]-1-phenyl-1H-pyrazole-3-carbonyl}-amino)-hexanoyl]-piperazine-1-carboxylic acid ethyl ester] | 30 | 
